# Results: ChEMBL document CHEMBL1201862, “PubChem BioAssay data set” (2004)
#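 Briefly, cells in 96-well plates were exposed to five compound concentrations for 48 h, and endpoints were estimated by linear interpolation. GI50 is the concentration that inhibits growth by half.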 The source made the active and inactive calls. Cut-off read from the data, not from the text of the source: active = GI50 up to about 1.1 µM and inactive = higher.
# Key:
# Assay in all cases: NCI-60 cell line screen, 48 h
# NCI-H23 = system: NCI-H23
# CAKI-1 = system: CAKI-1
# SNB-19 = system: SNB-19
# Malme-3M = system: Malme-3M
# IGROV-1 = system: IGROV-1
# TK-10 = system: TK-10
# SK-MEL-2 = system: SK-MEL-2
# SNB-75 = system: SNB-75
# U-251 = system: U-251
# MCF7 = system: MCF7
# MDA-MB-435 = system: MDA-MB-435
# SF-539 = system: SF-539
# A549 = system: A549
# Hs-578T = system: Hs-578T
# SN12C = system: SN12C
# HCT-15 = system: HCT-15
# UO-31 = system: UO-31
# MDA-N = system: MDA-N
# NCI/ADR-RES = system: NCI/ADR-RES
# OVCAR-4 = system: OVCAR-4
# EKVX = system: EKVX
# M14 = system: M14
# OVCAR-3 = system: OVCAR-3
# LOX IMVI = system: LOX IMVI
# T47D = system: T47D
# HT-29 = system: HT-29
# MDA-MB-231 = system: MDA-MB-231
# COLO 205 = system: COLO 205
# SK-MEL-5 = system: SK-MEL-5
# HL-60 = system: HL-60
# NCI-H522 = system: NCI-H522
# SR = system: SR
# OVCAR-8 = system: OVCAR-8
# SK-OV-3 = system: SK-OV-3
# RXF 393 = system: RXF 393
# UACC-257 = system: UACC-257
# PC-3 = system: PC-3
# HOP-62 = system: HOP-62
# SK-MEL-28 = system: SK-MEL-28
# HOP-92 = system: HOP-92
# CCRF-CEM = system: CCRF-CEM
# BT-549 = system: BT-549
# SW-620 = system: SW-620
# OVCAR-5 = system: OVCAR-5
# K562 = system: K562
# 786-0 = system: 786-0
# RPMI-8226 = system: RPMI-8226
# KM12 = system: KM12
# HCC 2998 = system: HCC 2998
# DU-145 = system: DU-145
# SF-268 = system: SF-268
# UACC-62 = system: UACC-62
# ACHN = system: ACHN
# HCT-116 = system: HCT-116
# SF-295 = system: SF-295
# NCI-H226 = system: NCI-H226
smiles,measurement,setting,value
CC1CN=C(Nc2cccc(F)c2)S1 (stereo unspecified),GI50,NCI-H23,> 100 µM (inactive)
same,GI50,CAKI-1,> 100 µM (inactive)
same,GI50,SNB-19,> 100 µM (inactive)
same,GI50,Malme-3M,> 100 µM (inactive)
same,GI50,IGROV-1,> 100 µM (inactive)
same,GI50,TK-10,> 100 µM (inactive)
same,GI50,SK-MEL-2,> 100 µM (inactive)
same,GI50,SNB-75,> 100 µM (inactive)
same,GI50,U-251,> 100 µM (inactive)
same,GI50,MCF7,> 100 µM (inactive)
same,GI50,MDA-MB-435,> 100 µM (inactive)
same,GI50,SF-539,> 100 µM (inactive)
same,GI50,A549,> 100 µM (inactive)
same,GI50,Hs-578T,> 100 µM (inactive)
same,GI50,SN12C,> 100 µM (inactive)
same,GI50,HCT-15,> 100 µM
same,GI50,UO-31,> 100 µM (inactive)
same,GI50,MDA-N,> 100 µM (inactive)
same,GI50,NCI/ADR-RES,> 100 µM (inactive)
same,GI50,OVCAR-4,> 100 µM (inactive)
same,GI50,EKVX,> 100 µM (inactive)
same,GI50,M14,> 100 µM (inactive)
same,GI50,OVCAR-3,> 100 µM (inactive)
same,GI50,LOX IMVI,> 100 µM (inactive)
same,GI50,T47D,> 100 µM (inactive)
same,GI50,HT-29,> 100 µM (inactive)
same,GI50,MDA-MB-231,3.99 µM (inactive)
same,GI50,COLO 205,> 100 µM (inactive)
same,GI50,SK-MEL-5,> 100 µM (inactive)
same,GI50,HL-60,> 100 µM (inactive)
same,GI50,NCI-H522,> 100 µM (inactive)
same,GI50,SR,7.87 µM (inactive)
same,GI50,OVCAR-8,> 100 µM (inactive)
same,GI50,SK-OV-3,> 100 µM (inactive)
same,GI50,RXF 393,> 100 µM (inactive)
same,GI50,UACC-257,> 100 µM (inactive)
same,GI50,PC-3,> 100 µM (inactive)
same,GI50,HOP-62,> 100 µM (inactive)
same,GI50,SK-MEL-28,> 100 µM (inactive)
same,GI50,HOP-92,> 100 µM (inactive)
same,GI50,CCRF-CEM,91 µM (inactive)
same,GI50,BT-549,> 100 µM (inactive)
same,GI50,SW-620,> 100 µM (inactive)
same,GI50,OVCAR-5,> 100 µM (inactive)
same,GI50,K562,> 100 µM (inactive)
same,GI50,786-0,> 100 µM (inactive)
same,GI50,RPMI-8226,> 100 µM (inactive)
same,GI50,KM12,> 100 µM (inactive)
same,GI50,HCC 2998,> 100 µM (inactive)
same,GI50,DU-145,> 100 µM (inactive)
same,GI50,SF-268,> 100 µM (inactive)
same,GI50,UACC-62,> 100 µM (inactive)
same,GI50,ACHN,> 100 µM (inactive)
same,GI50,HCT-116,> 100 µM (inactive)
same,GI50,SF-295,> 100 µM (inactive)
same,GI50,NCI-H226,> 100 µM (inactive)
